The source of these data is US20250270180A1, “MEK INHIBITORS AND THERAPEUTIC USES THEREOF” (Immuneering Corporation, priority 2020, published 2025).

A word on the IC50: it is the concentration that inhibits the measured activity by half. As a reminder, the half-life is the time in which the quantity being followed falls by half. By microsomal CLint is commonly meant the rate of metabolic loss divided by the concentration. For orientation: kinetic solubility means the concentration staying in solution when a stock, usually in DMSO, is diluted into the medium. In general, chromatographic logD refers to lipophilicity estimated from chromatographic retention. A low value points to a more hydrophilic compound. The term Papp denotes a coefficient for how fast a substance crosses the barrier. Read a high Papp as fast passage. For orientation: Tmax means the time from dosing to the highest level. As a reminder, the AUC(0-inf) is the area under the concentration-time curve extrapolated to infinity. What is called AUC(0-t) is the area under the concentration-time curve up to a stated or last time point. For orientation: Cmax means the highest concentration seen after dosing. The Papp A→B is the apparent permeability from the apical to the basolateral side of a cell layer. Read a high Papp A→B as ready permeation.

Data set [1] deals with A549 (KRAS-G12S) pERK. Description: Cell-based pERK dose response study, A549. The following applies: Homo sapiens; A549; 12-point dose; 2 hours. How it is done:
Materials and Methods: A549 or A375 cells were seeded in 6-well plates at an appropriate seeding density on day 0. On day 2 or 3, after checking the health and confluency of cells, the media was aspirated and replaced with 1 mL media containing a predetermined concentration of compound and incubated for 2 hours. After 2 hours, the media was aspirated, and the cells washed 2 times with cold PBS. Cells were lysed on ice, with 50 uL 1×CST lysis buffer+1 mM PMSF for 5 minutes. After 5 minutes, cells were removed using a scraper and transferred to cold 1.5 mL tubes, and centrifuged for 10 min, 4° C., 14,000×g. Supernatant was gently removed and snap frozen in liquid nitrogen. Protein concentration of the lysate was determined using Bradford Reagent (analyzed using SpectraMax M2E) and diluted to 1 mg/mL or pERK or 1.5 mg/mL for pMEK analysis. […] All dilutions were in Milk-free antibody diluent.

Data set [2] concerns A549 pMEK:tMEK (CRAF). In words: CRAF-bypass pMEK:tMEK, A549. It is filed as cell-based. As to the method:
Materials and Methods: A549 or A375 cells were seeded in 6-well plates at an appropriate seeding density on day 0. On day 2 or 3, after checking the health and confluency of cells, the media was aspirated and replaced with 1 mL media containing a predetermined concentration of compound and incubated for 2 hours. After 2 hours, the media was aspirated, and the cells washed 2 times with cold PBS. Cells were lysed on ice, with 50 uL 1×CST lysis buffer+1 mM PMSF for 5 minutes. After 5 minutes, cells were removed using a scraper and transferred to cold 1.5 mL tubes, and centrifuged for 10 min, 4° C., 14,000×g. Supernatant was gently removed and snap frozen in liquid nitrogen. Protein concentration of the lysate was determined using Bradford Reagent (analyzed using SpectraMax M2E) and diluted to 1 mg/mL or pERK or 1.5 mg/mL for pMEK analysis. Cell lysates were then analyzed for phosphor-ERK/total-ERK levels on a Jess system (ProteinSimple; Cat #JS3346) using the following antibodies: tERK1/2 (CST 4696; 1:50) and pERK1/2 (CST 4377; 1:50). […]
A549 or […] cells were treated in duplicate for two hours with compounds at varying concentrations. […] After storage, the lysate was quantified with the Bradford assay. Before the lysates were prepared to run on the Jess, the lysates were diluted to 1 mg/mL for pERK analysis and 1.5 mg/mL pMEK analysis using quantitative Western blotting. […]

The nature of data set [3]: Mouse liver microsome stability (t1/2, Clint). It counts as in vitro ADME. The following applies: liver microsomes, pH 7.4, 0.5 mg/ml microsomal protein. How it is done:
(Eppendorf 5804R). […] The disappearance of the parent compound was determined.
(Microsomes from liver hold many membrane-bound enzymes, among them those of drug oxidation.)

Data set [4] can be described thus: Human liver microsome stability (t1/2, Clint). It counts as in vitro ADME. The following applies: microsomes, pH 7.4, 0.5 mg/ml microsomal protein.
Data set [5] is described as follows: Kinetic solubility (PBS pH 7.4; 4 hr). The following applies: 10 mM PBS buffer, aqueous buffer, kinetic from dmso stock. It counts as physicochemical. As to the method:
The plates were shaken for 4 h at room temperature in an Eppendorf Thermomixer. After incubation, the plates were centrifuged for 20 minutes at 4680 rpm. From the supernatant, 150 uL was transferred to a new 96 well plate and 50 uL DMSO was added to ensure continued dissolution. Samples were measured on LC-UV at injection volumes of 1 and 8 uL. Peak areas were determined and compared to peak areas obtained using calibration curves of the test compounds in DMSO.

A short description of data set [6]: eLogD (lipophilicity; pH 7.4). It is filed as physicochemical. As to the method:
Test compounds were dissolved in DMSO at a concentration of 10 mM and further diluted with methanol: water 1:1. Samples were analyzed using gradient HPLC with three different isocratic mobile phases of 0.25% octanol in methanol (60, 65 and 70%) and 20 mM MOPS buffer (pH 7.4) with decylamine. If needed, (for low ElogDoct compounds) the isocratic mobile phases were adjusted to e.g. 40, 45 and 50% methanol. Peaks were detected using a diode array at absorbance 220-320 nm.
Capacity factors data (k′ _=(tr−_t0)/t0) obtained at various amounts of methanol were extrapolated to 0% methanol and k′w values are determined using a linear procedure. ElogDoct (7.4) is calculated using a series of reference standards with known Log D values. Each experiment was performed in triplicate.

The nature of data set [7]: PAMPA (pH 7.4). The following applies: PAMPA. How it is done:
Each stock solution was diluted to 50 uM in pH 7.4 Prisma HT buffer (pION) and 200 ul was added to each well of the donor plate in triplicate. The polyvinylidene fluoride (PVDF, 0.45 μm) filter membrane on the acceptor plate was coated with 5 ul gastrointestinal tract lipid formulation (GIT-0, pION) and to each well of the acceptor plate, 200 μl of acceptor sink buffer (pION) was added. The acceptor filter plate was then carefully placed on top of the donor plate to form a sandwich. The sandwich was incubated at 25° C. for 4 h without stirring. UV-vis spectra of the solutions in the blank, reference, acceptor and donor plates were measured using a microplate reader (Tecan Infinite 200PRO M Nano Plus). Permeability values were calculated using the PAMPA explorer software v. 3.8.0.2 (pION).
In general terms: In PAMPA a lipid-coated filter parts donor from acceptor wells.

A short description of data set [8]: Single dose PK profile (plasma and tumor) in Colon26 tumor bearing mice. It counts as in vivo. The following applies: female, mouse. As to the method:
Female mice (either athymic BALC/c nude, or BALB/c mice) were inoculated with a single subcutaneous injection of 0.1 ml of mouse Colon-26 cell suspension (1×10^5 cells per animal) in the right flank region. Colon26 (C26) tumor bearing mice received a single dose (3-4 mice/treatment) of vehicle (10% DMSO/90% [20% SBE-B-CD in saline], pH 5) containing compounds at indicated dose by gavage (p.o.) or intravenous administration (i.v.) and at various time points (0.16, 0.5, 1, 2, 4, 8, 12, 16, 24-hour) post dose humanely euthanized. Blood was obtained through cardiac puncture into K+EDTA tubes, mixed by inversion and centrifuged to obtain the plasma. Tissues were excised, cleaned of surrounding tissues. All samples immediately snap frozen in liquid N2 prior to LC-MS/MS analysis (using Agilent Poroshell-120 EC-C18 (4.0 μm) 2.1×50 mm, and a Water+API-4000 Electrospray MS unit). The results of this study are illustrated in FIGS. 16, and 17. Tables 11 describes a single does PK profile (plasma) and Table 12 describes a single dose PK profile (tumor).

Data set [9] has as its target CYP450 2D6 (Homo sapiens, UniProt P10635).
A short description of data set [10]: in vitro. The following applies: human, Caco-2.
The conditions of data set [11]: Inv New Drugs (2018) 36, 1037-1043; cited from earlier work.
[12] abbreviates: athymic BALB/c nude or BALB/c, iv, 25 mg/kg, plasma, 25 mpk i.v.
Where [13] appears, read: athymic BALB/c nude or BALB/c, po, 25 mg/kg, plasma, 25 mpk p.o.
Setting [14] is: athymic BALB/c nude or BALB/c, po, 100 mg/kg, plasma, 100 mpk p.o.
Setting [15] is: iv, 25 mg/kg, plasma, 25 mpk i.v.
The mark [16] stands for this setting: iv, 25 mg/kg, tumor, 25 mpk i.v.
The mark [17] stands for this setting: po, 25 mg/kg, plasma, 25 mpk p.o.
Setting [18] is: po, 25 mg/kg, tumor, 25 mpk p.o.
Setting [19] is: po, 100 mg/kg, plasma, 100 mpk p.o.
The mark [20] stands for this setting: po, 100 mg/kg, tumor, 100 mpk p.o.

CYP450 2D6, sequence (P10635 whole entry): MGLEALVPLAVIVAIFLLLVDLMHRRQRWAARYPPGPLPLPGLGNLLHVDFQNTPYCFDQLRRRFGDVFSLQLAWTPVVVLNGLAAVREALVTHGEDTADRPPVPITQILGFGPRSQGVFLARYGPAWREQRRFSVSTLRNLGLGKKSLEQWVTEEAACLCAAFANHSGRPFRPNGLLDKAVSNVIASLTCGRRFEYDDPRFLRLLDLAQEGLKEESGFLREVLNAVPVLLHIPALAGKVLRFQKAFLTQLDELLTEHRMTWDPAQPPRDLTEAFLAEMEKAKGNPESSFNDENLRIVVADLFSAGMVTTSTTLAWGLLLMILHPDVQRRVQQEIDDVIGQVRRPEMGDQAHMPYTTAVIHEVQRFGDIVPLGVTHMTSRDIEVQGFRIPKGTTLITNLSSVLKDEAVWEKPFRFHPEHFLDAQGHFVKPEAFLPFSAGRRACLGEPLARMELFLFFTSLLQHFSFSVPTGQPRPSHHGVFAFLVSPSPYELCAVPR

Regarding `CNS(=O)(=O)Nc1cccc(Cc2c(CN3CCC3)c3ccc(OC(=O)N(C)C)cc3oc2=O)c1F` [Compound 197], in [1], the half-inhibitory concentration (IC50) came out at 4.3 nM. Besides, in data set [2], the “CRAF A549 pMEK:tMEK [100 nM; 2 hr]” value is 0.49. In addition, the half-life at 1 uM in data set [3] worked out at 53 min; in data set [4], 38 min. The microsomal CLint at 1 uM in [3] worked out at 26 µL/min/mg. The same compound registered a kinetic solubility at 4 h in data set [5] of over 80 µM. Also, in data set [6], the chromatographic logD stood at 2.9. The Papp at 4 h, 50 uM in [7] turned out to be 51 ×10⁻⁶ cm/s. Further, the Tmax turned out to be 9.6 min in data set [8] (setting [12]); 30 min in data set [8] (setting [16]); 30 min in [8] (setting [17]); 60 min in [8] (setting [18]); 9.6 min in data set [8] (setting [19]); 60 min in data set [8] (setting [20]). For the same compound, the half-life in [8] (setting [12]) is 143 min; in [8] (setting [13]), 73.8 min; in data set [8] (setting [14]), 82.8 min. Further, the bioavailability in data set [8] (setting [13]) is 47%; in data set [8] (setting [14]), 100%; in [8] (setting [18]), 42%; in [8] (setting [20]), 111%. Also, the AUC(0-inf) in [8] (setting [15]) is 7740 ng·h/mL; in [8] (setting [16]), 8360 ng·h/mL; in data set [8] (setting [17]) it was 3650 ng·h/mL; in [8] (setting [19]), 31100 ng·h/mL; in data set [8] (setting [20]) it was 37100 ng·h/mL. The AUC(0-t) amounted to 7730 ng·h/mL in data set [8] (setting [15]); 8320 ng·h/mL in [8] (setting [16]); 3640 ng·h/mL in data set [8] (setting [17]); 3460 ng·h/mL in data set [8] (setting [18]); 31100 ng·h/mL in [8] (setting [19]); 36900 ng·h/mL in data set [8] (setting [20]). For the same compound, the Cmax stood at 10900 ng/mL in data set [8] (setting [15]); 6750 ng/mL in [8] (setting [16]); 2320 ng/mL in [8] (setting [17]); 1920 ng/mL in data set [8] (setting [18]); 14200 ng/mL in [8] (setting [19]); 12600 ng/mL in data set [8] (setting [20]).

As for `C=C[C@H]1C[N@@]2CC[C@H]1C[C@@H]2[C@@H](O)c1ccnc2ccc(OC)cc12` [Quinidine], the “2D6*” value in data set [9] is given as 99.7.

Turning to `CC(=O)CC(c1ccccc1)c1c(O)c2ccccc2oc1=O` (centres unmarked) [Warfarin], the Papp A→B at 2 h, 10 μM in data set [10] is over 1 ×10⁻⁶ cm/s.

Regarding `Cn1cnc2c(F)c(Nc3ccc(Br)cc3F)c(C(=O)NOCCO)cc21` [binimetinib], the “muscle gain in patients with BTC” value in data set [11] was “promote muscle gain”.
